Tests used:
[1] = test system: E. coli HisG; details: E. coli enzyme; cited from earlier work
[2] = test system: Arabidopsis thaliana HisG; details: cited from earlier work
[3] = molecular target: M. tuberculosis HisG (ATP-PRTase) (Mycobacterium tuberculosis, UniProt P9WMN1); format: biochemical; details: read-out: inhibition of enzyme activity
[4] = molecular target: HisG; details: competitive inhibitor for both substrates; cited from earlier work
[5] = test system: M. smegmatis; experiment: Whole-cell assay, growth inhibition on agar plates; format: cell-based; details: 12 μg/ml, 4 days

Sequence of M. tuberculosis HisG (ATP-PRTase) (P9WMN1 whole entry): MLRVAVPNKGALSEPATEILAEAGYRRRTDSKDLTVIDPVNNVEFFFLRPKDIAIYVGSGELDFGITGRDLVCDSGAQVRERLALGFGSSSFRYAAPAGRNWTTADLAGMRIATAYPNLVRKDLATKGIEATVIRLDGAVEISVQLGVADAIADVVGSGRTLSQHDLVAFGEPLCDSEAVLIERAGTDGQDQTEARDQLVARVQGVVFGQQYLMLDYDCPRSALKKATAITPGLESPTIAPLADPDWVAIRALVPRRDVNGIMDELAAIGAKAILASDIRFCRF

Molecule: O=c1oc2ccccc2c(O)c1Cc1c(O)c2ccccc2oc1=O [dicoumarol]
- Ki [1]: 60 µM

Molecule: di-(amino-naphthyl)-disulfide
- IC50 [2]: 50 nM

Molecule: COc1ccc(COC(=O)C2=C(C)NC3=C(C(=O)CC(c4cccs4)C3)C2c2cccs2)cc1 (stereo not shown) [Compound 10]
- inhibition at 10 µM [3]: > 50%

Molecule: O=C(CC(NC(=O)c1ccccc1)c1ccccc1)Nc1nc2ccc([N+](=O)[O-])cc2s1 (stereo not shown) [Compound 6]
- inhibition at 10 µM [3]: > 50%

Molecule: Nc1ncnc2c1ncn2[C@@H]1O[C@H](COP(=O)(O)O)[C@@H](O)[C@H]1O [AMP, adenosine monophosphate]
- Ki [4]: 550 µM

Molecule: O=[N+]([O-])c1ccc(Nc2cc(Nc3cccc(O)c3)c3nonc3c2[N+](=O)[O-])c(O)c1 [Compound 18]
- growth inhibition [5]: significant growth inhibition

Molecule: O=C(CSc1nnc(-c2ccccc2)c(-c2ccccc2)n1)Cc1nccs1 [Compound 4]
- inhibition at 10 µM [3]: > 50%

Reference: paper PMC2610488 (Journal of medicinal chemistry, 2008)
